# Literature values in patent US20050255458A1, “Drug discovery assays based on the biology of chronic disease” (priority 2002, published 2005).
# Counter-ions that a name gives are not always drawn. Like-named read-outs stand apart in the source and are kept apart here.
# Tests used:
# [1] = test system: ocular melanoma cell lines; details: cited from earlier work
# apo(a) transgenic mice = details: 12 weeks; cited from earlier work
# GABP = details: 3T3 cells treated 2 h; single and double N-box probes; cited from earlier work
# double N-box-TATA-Luc = details: cited from earlier work; for decrease in luciferase expression: double N-box-TATA-Luc
# DC = details: inhaled; cited from earlier work
# NF-κB [2] = details: cited from earlier work
# ERK [3] = details: adipocytes; cited from earlier work
# [4] = test system: abdominal subcutaneous adipocytes; details: obese vs non-obese (Hellstrom 2000); cited from earlier work
# TF [5] = details: cited from earlier work
# [6] = test system: hamsters on a high-cholesterol diet; details: 8 weeks, cited from earlier work
# ACE = biological target: T1, ACE (Mesocricetus auratus, UniProt Q50JE5); details: cited from earlier work
# T1 construct: from tissue; host or cells: whole animal, in vivo (hamster)
# T1 sequence (Q50JE5 36-1314): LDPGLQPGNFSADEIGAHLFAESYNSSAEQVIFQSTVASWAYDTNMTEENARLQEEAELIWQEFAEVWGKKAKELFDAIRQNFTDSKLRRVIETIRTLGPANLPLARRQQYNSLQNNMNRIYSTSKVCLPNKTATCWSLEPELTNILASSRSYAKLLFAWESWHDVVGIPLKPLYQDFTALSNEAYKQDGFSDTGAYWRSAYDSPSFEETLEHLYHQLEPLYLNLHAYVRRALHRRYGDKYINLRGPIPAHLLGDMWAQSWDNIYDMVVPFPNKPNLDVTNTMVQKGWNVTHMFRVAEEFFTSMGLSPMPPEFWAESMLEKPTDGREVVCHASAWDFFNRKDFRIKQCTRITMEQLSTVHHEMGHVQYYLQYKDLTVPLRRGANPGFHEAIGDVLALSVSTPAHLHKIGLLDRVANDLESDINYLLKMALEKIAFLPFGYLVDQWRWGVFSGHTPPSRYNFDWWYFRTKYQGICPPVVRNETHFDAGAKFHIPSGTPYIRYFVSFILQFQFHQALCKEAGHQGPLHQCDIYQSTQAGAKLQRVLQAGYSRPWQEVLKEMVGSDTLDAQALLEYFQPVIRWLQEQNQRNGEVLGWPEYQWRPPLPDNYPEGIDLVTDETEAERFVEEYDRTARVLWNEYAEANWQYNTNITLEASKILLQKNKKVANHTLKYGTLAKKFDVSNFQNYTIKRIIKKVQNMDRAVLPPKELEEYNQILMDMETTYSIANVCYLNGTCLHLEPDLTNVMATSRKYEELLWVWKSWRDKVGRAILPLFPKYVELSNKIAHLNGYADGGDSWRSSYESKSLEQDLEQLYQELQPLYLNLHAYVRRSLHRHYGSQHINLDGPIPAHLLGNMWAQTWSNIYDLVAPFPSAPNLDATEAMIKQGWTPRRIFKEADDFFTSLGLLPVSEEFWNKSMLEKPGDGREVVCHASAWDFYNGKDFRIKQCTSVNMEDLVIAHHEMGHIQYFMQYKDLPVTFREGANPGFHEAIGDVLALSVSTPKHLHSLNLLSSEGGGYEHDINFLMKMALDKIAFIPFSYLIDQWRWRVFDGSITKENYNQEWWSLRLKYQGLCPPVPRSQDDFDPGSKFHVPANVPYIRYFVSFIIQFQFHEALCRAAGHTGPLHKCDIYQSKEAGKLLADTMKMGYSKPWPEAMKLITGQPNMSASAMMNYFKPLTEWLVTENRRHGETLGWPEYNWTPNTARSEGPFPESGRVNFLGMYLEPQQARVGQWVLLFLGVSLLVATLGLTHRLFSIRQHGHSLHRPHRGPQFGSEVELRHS
# TF [7] = details: cited from earlier work; remark: listed apart in the source
# apoE(−/−) mice = details: 48 hours post injection; cited from earlier work
# ERK [8] = details: Jurkat cells; cited from earlier work
# fibronectin = details: cited from earlier work
# AT1-receptor = biological target: T2, AT1-receptor (Oryctolagus cuniculus, UniProt P34976); details: cited from earlier work
# T2 construct: from tissue; host or cells: whole animal: Watanabe and New Zealand White rabbits
# T2 sequence (P34976 1-359): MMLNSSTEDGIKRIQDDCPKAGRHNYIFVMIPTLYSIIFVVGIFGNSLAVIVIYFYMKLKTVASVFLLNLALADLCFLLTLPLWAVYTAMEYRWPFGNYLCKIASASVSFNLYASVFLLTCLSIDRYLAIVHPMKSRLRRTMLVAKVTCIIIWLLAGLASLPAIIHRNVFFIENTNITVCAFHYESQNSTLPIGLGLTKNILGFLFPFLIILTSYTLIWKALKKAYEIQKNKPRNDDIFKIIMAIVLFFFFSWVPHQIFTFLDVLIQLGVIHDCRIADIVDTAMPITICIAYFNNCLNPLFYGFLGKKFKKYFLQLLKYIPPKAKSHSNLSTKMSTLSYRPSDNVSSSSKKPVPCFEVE
# ERK1 and ERK2 = details: cited from earlier work; for MAPK activation: Wen 1996, Rao 1994
# ERK [9] = details: SW-13 human adrenal carcinoma; cited from earlier work
# anagen hair follicles = details: Kondo 1990; cited from earlier work
# [10] = test system: hair follicles (onset of anagen); details: topical 10 nmol twice weekly, female CD-1 mice; cited from earlier work
# papilla cells = details: cited from earlier work
# AR gene = details: LNCaP; cited from earlier work
# NF-κB [11] = details: various cells and tissues; cited from earlier work
# 20-3 cells = details: cited from earlier work
compound,measurement,setting,value
CC/C(=C(\c1ccccc1)c1ccc(OCCN(C)C)cc1)c1ccccc1 [tamoxifen],cell attachment to plates coated with fibronectin and other matrix proteins,[1],significant inhibition of cell attachment
same,decrease of area of focal apo(a) accumulation,apo(a) transgenic mice,97%
same,decrease of average level of apo(a) in the vessel wall,apo(a) transgenic mice,69%
same,decrease of lesion area,apo(a) transgenic mice,92%
same,decrease of number of lipid lesions,apo(a) transgenic mice,80%
"CCOC(=O)/C=C\C(=O)OCC [DEM, diethyl maleate]",GABP DNA binding activity (EMSA),GABP,decreased formation
same,luciferase expression from C/EBP-TA-Luc,double N-box-TATA-Luc; 6 or 8 h treatment,no effect
same,decrease in luciferase expression,double N-box-TATA-Luc; 6 h,28%
same,decrease in luciferase expression,double N-box-TATA-Luc; 8 h,62%
CCC(=O)OCC(=O)[C@@]1(OC(=O)CC)[C@@H](C)C[C@H]2[C@@H]3CCC4=CC(=O)C=C[C@]4(C)[C@@]3(Cl)[C@@H](O)C[C@@]21C [beclomethasone dipropionate],number of DC in asthma,DC,decreased the excessive number of DCs in asthma
same,NF-κB activation,NF-κB [2],decreases NF-κB activation
"CCCC(=O)Nc1ncnc2c1ncn2[C@@H]1O[C@@H]2COP(=O)(O)O[C@H]2[C@H]1OC(=O)CCC [dibutyryl cAMP, dibutyryl cyclic AMP]",ERK activation,ERK [3],activated ERK
same,decrease in maximum induced glycerol release,[4],50%
C[C@H](CS)C(=O)N1CCC[C@H]1C(=O)O [captopril],level of TF antigen and mRNA in the cultured cells,TF [5],decreased the level of TF antigen and mRNA
same,cell size of macrophage derived foam cells,[6],did not change the cell size
same,decrease of fatty streak area,[6],35%
same,heart rate,[6],348±6 beats/min
same,mean arterial pressure,[6],110±5 mm Hg
same,subendothelial number of macrophage derived foam cells in the aortic arch,[6],108±10 cells/mm^2
same,plasma total cholesterol,"[6]; pravastatin 34, captopril 100 mg/kg/day",did not change plasma lipids
same,decrease in HDL,"ACE; 100 mg/kg/day, 6 weeks, vs week 3 and 4",24%
same,number of subendothelial macrophage derived foam cells,"ACE; 100 mg/kg/day, after 6 weeks of treatment",52±9 cell/mm^2
same,area of extracellular lipid particles,ACE; after 6 weeks of treatment,"157±36 μm2×1,000"
same,area of fatty streak,ACE; after 6 weeks of treatment,"55±12 μm2×1,000"
same,average size of a foam cell,ACE; after 6 weeks of treatment,89±5 μm^2
same,nuclear translocation of c-Rel/p65 induced by endotoxin,TF [7]; 20 μg/mL,almost completely inhibited
same,TF activity,TF [7]; dose-dependent,decreased TF activity
"CCCCCCCCCCCCCCCC(=O)OC[C@H](COP(=O)([O-])OCC[N+](C)(C)C)OC(=O)CCCCCCCCCCCCCCC [DPPC, dipalmitoylphosphatidylcholine]",lipid content of aortic sinus,apoE(−/−) mice,18.1±4.7 % of plaque area
same,macrophage content of aortic sinus,apoE(−/−) mice,9.3±5.8 % of plaque area
C[C@H](CCC(=O)O)C[C@H](C)C[C@H](C)C(=O)/C=C(\O)[C@H](C)C[C@H](C)C/C=C/[C@@H](C)[C@@H](O)[C@@H](C)[C@@H](O)C[C@@H]1CC[C@@](C)([C@H]2CC[C@@](C)([C@@H](C)O)O2)O1 [ionomycin],cell attachment to plates coated with fibronectin and other matrix proteins,[1],Significant inhibition
same,ERK phosphorylation,ERK [8],increased ERK phosphorylation
NCCCCCC(=O)O [ε-ACA],Lp(a) binding to fibronectin,fibronectin,not effective against Lp(a) binding to fibronectin
same,binding of plasminogen to fibronectin,fibronectin,inhibited binding of plasminogen to fibronectin
CCCCc1cc(C(=O)OC)cc(=O)n1Cc1ccc(-c2ccccc2-c2nnn[nH]2)cc1F [Bay 10-6734],fat-stained area in the aorta,"AT1-receptor; 25 mg/kg/day, high-cholesterol diet",5.3±1.4%
same,% of macrophage stained area/total plaque cross sectional area,AT1-receptor; 25 mg/kg/day,1±0.2%
same,cholesterol levels,AT1-receptor; hyperlipidemic or control animals,did not change the cholesterol levels
"O=C(O)CCC/C=C\C/C=C\C/C=C\C/C=C\CCCCCO [20-HETE, 20-hydroxyeicosatetraenoic acid]",ERK1 and ERK2 activation,"ERK1 and ERK2; 0.25 μM, 10 min",activated ERK1 and ERK2
CCCCC[C@H](O)/C=C/C=C\C/C=C\C/C=C\CCCC(=O)O [15-HETE],MAPK activation,ERK1 and ERK2,activation of MAPK
C[C@]12CC[C@H]3[C@@H](CCC4=CC(=O)CC[C@@]43C)[C@@H]1CC[C@@H]2O [Testosterone],Effect on [ERK^phos],ERK [9],↑[ERK^phos]
same,growth of isolated hair follicles,anagen hair follicles,growth inhibition
same,delay in hair regrowth,[10],small delay
same,papilla cell proliferation,"papilla cells; 345 nM, 14 days",significantly decreased papilla cell proliferation
same,dermal papilla cell proliferation,"papilla cells; 10^−10 to 10^−7 M, alone or co-cultured (Obana 1997)",no effect
same,concentrations with no significant effect on papilla cell proliferation,papilla cells; Kiesewetter 1993,lower than 173 nM
same,Effect on [mRNAAR],AR gene,↓[mRNAAR]
O=C(O)C[C@H](O)C[C@H](O)/C=C/c1c(C2CC2)nc2ccccc2c1-c1ccc(F)cc1 [pitavastatin],NF-κB activation,NF-κB [11],inhibited NF-κB activation
TGFβ1: transforming growth factor-β1,labeling index after treatment,"20-3 cells; 5 ng/ml, 72 h, permissive temperature (from 95%)",80%
same,labeling index after treatment,20-3 cells; 72 h non-permissive then 24 h permissive (from 60%),below 10%
same,labeling index after treatment,20-3 cells; non-permissive temperature (from 20%),less than 5%
CC[C@H](C)C(=O)O[C@H]1CCC=C2C=C[C@H](C)[C@H](CC[C@@H]3C[C@@H](O)CC(=O)O3)[C@H]21 [mevastatin],NF-κB activation,NF-κB [11],inhibited NF-κB activation
CCCCC/C=C\C[C@H](O)/C=C/C=C\C/C=C\CCCC(=O)O [12-HETE],MAPK activation,ERK1 and ERK2,activation of MAPK
